The target of assay [1] is T1, human Cereblon WT GST-tagged protein (Homo sapiens, UniProt Q96SW2).
T1 construct: purchased CISBIO 64BDCRBNPEH
The assay can be described thus: CRBN-binding affinity, HTRF (CEREBLON BINDING kit). As to conditions: for inhibition at 0.5 µM: read-out: Inhibition Rate at 0.5 µM (%); for inhibition at 2 µM: read-out: Inhibition Rate at 2 µM (%). For orientation: In TR-FRET formats the signal depends on donor and acceptor labels being close together.

Assay [2] relates to Human myeloid monocytic leukemia cell (MV-4-11). Briefly: Tumor cell proliferation inhibition (CellTiter-Meiluncell luminescent cell viability assay). The note with it: MV4-11, 96 h; for inhibition at 0.01 µM: read-out: Inhibition Rate at 10 nM (%); for inhibition at 0.5 µM: read-out: Inhibition Rate at 500 nM (%).
For another assay, the target named is T2, CK1α (Homo sapiens, UniProt P48729+Q96SW2).
T2 construct: effects of the compounds of the present disclosure on the expression of target proteins in cells; endogenous in cells; host or cells: human PBMCs (Milecell Biotechnologies)
The assay can be described thus: Western blot, degradation of substrate protein in hPBMCs. It is filed as cell-based. (In western blotting, separated proteins are transferred to a membrane and probed.)

Another assay deals with T3, IKZF1 (Homo sapiens, UniProt Q13422+Q96SW2).
T3 construct: effects of the compounds of the present disclosure on the expression of target proteins in cells; endogenous in cells; host or cells: human PBMCs (Milecell Biotechnologies)
The assay is described as above. It is filed as cell-based.

For a further assay, the target named is T4, IKZF2 (Homo sapiens, UniProt Q96SW2+Q9UKS7).
T4 construct: effects of the compounds of the present disclosure on the expression of target proteins in cells; endogenous in cells; host or cells: human PBMCs (Milecell Biotechnologies)
The assay is described as above. It is filed as cell-based.

The target of another assay is T5, IKZF3 (Homo sapiens, UniProt Q96SW2+Q9UKT9).
T5 construct: effects of the compounds of the present disclosure on the expression of target proteins in cells; endogenous in cells; host or cells: human PBMCs (Milecell Biotechnologies)
Described as above. It is filed as cell-based.

A further assay has as its target T6, WEE1 (Homo sapiens, UniProt P30291+Q96SW2).
T6 construct: effects of the compounds of the present disclosure on the expression of target proteins in cells; endogenous in cells; host or cells: human PBMCs (Milecell Biotechnologies)
The description is as above. It is filed as cell-based.

A further assay concerns GSPT1. The assay is described as above. The class given is cell-based, Human.
The subject of assay [3] is Human multiple myeloma cell (MM.1S). Briefly: Tumor cell proliferation inhibition (CellTiter-Meiluncell luminescent cell viability assay). The note with it: Homo sapiens, MM1.S, 96 h; for inhibition at 0.01 µM: read-out: Inhibition Rate at 10 nM (%); for inhibition at 0.5 µM: read-out: Inhibition Rate at 500 nM (%).
Where [4] appears, read: Western blot, 24 hours of compound treatment, compounds tested at 50 nM and 500 nM (concentration for the table not stated).
[5] abbreviates: 24 hours treatment, compounds at 50 nM and 500 nM (concentration behind the class not stated).

Results on twelve compounds are retold here after EP4745135A1 (Gluetacs Therapeutics (Shanghai) Co., Ltd., priority 2023, dated 2025).

T1 sequence (Q96SW2 whole entry): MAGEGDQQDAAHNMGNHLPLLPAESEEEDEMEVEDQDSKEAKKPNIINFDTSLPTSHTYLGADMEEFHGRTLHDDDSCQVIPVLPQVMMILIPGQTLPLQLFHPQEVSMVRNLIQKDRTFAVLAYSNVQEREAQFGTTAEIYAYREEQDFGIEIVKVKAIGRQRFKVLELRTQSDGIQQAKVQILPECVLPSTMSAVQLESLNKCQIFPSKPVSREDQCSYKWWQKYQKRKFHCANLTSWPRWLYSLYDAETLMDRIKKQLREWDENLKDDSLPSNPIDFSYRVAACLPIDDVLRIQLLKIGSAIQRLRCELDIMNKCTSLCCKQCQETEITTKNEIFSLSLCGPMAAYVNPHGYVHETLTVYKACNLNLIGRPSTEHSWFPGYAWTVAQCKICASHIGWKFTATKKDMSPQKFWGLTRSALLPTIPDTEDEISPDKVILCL
T4 sequence (Q9UKS7 whole entry): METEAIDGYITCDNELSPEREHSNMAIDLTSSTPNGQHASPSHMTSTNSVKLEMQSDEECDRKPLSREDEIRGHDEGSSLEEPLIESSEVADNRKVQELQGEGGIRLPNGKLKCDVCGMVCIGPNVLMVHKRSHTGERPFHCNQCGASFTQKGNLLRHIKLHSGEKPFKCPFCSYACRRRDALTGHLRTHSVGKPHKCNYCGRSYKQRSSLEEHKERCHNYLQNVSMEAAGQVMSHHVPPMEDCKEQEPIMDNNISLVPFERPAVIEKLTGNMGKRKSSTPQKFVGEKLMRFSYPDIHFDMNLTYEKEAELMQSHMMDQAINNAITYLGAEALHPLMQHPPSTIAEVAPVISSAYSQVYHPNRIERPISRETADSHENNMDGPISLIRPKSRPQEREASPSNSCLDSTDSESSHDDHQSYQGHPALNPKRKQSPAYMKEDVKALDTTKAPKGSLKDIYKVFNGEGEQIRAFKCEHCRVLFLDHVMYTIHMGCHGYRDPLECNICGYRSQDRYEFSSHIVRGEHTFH
T4 sequence (Q96SW2 whole entry): as the sequence (Q96SW2 whole entry) above
T4 sequence (Q16531 whole entry partner): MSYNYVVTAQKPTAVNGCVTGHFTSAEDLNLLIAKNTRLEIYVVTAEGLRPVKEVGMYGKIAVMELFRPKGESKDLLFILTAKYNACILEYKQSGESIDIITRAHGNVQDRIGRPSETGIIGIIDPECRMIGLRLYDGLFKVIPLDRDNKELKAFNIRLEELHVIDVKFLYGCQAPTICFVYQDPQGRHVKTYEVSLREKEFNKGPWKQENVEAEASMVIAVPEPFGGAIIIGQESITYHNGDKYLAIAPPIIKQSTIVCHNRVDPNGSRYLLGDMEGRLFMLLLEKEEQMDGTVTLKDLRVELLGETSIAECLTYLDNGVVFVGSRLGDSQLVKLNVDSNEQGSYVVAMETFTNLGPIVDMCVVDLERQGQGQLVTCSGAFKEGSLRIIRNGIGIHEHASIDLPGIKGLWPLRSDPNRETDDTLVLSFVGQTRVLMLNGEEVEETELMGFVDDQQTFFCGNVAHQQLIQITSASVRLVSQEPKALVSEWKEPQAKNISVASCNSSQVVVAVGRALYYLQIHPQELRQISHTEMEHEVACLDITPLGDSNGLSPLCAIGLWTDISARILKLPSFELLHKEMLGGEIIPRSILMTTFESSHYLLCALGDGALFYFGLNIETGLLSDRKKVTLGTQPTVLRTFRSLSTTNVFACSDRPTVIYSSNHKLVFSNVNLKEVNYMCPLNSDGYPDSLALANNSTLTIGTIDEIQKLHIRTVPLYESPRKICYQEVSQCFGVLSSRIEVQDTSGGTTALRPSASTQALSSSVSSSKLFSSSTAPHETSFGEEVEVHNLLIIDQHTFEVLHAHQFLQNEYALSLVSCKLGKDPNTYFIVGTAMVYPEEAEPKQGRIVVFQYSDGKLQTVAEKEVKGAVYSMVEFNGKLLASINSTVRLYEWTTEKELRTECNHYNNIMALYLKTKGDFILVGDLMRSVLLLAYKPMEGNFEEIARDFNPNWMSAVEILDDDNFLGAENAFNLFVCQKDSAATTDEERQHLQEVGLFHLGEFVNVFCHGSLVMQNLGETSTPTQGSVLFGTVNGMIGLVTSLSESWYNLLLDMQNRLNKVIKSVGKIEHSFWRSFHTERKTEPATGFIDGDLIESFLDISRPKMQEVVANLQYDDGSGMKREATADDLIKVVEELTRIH
T5 sequence (Q9UKT9 whole entry): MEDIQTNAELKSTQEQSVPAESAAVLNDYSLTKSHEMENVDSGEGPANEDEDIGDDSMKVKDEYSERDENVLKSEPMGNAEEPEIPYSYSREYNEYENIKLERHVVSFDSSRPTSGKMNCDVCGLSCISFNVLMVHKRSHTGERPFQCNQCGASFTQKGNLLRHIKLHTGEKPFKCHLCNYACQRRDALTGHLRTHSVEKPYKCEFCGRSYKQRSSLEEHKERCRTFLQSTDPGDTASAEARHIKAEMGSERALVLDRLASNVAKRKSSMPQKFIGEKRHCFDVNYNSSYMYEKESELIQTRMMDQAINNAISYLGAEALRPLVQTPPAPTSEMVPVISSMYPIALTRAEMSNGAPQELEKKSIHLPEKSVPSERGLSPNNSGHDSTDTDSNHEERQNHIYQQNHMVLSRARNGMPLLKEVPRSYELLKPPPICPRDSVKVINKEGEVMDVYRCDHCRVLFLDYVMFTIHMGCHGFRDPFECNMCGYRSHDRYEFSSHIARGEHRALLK
T5 sequence (Q96SW2 whole entry): as the sequence (Q96SW2 whole entry) above
T5 sequence (Q16531 whole entry partner): as the sequence (Q16531 whole entry partner) above
T3 sequence (Q13422 whole entry): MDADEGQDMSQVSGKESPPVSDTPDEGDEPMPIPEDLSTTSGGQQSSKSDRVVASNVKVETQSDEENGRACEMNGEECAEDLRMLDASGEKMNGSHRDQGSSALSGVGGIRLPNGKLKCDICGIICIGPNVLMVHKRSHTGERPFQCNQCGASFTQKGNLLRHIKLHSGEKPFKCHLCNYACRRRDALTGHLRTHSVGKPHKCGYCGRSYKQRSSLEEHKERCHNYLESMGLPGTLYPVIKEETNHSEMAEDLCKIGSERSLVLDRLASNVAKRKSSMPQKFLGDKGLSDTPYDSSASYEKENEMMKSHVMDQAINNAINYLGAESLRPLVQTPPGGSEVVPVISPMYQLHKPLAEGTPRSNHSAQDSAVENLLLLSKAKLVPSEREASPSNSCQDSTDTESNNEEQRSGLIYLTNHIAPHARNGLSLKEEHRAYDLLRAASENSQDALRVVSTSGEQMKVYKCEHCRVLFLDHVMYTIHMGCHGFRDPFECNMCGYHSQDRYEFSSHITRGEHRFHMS
T3 sequence (Q96SW2 whole entry): as the sequence (Q96SW2 whole entry) above
T3 sequence (Q16531 whole entry partner): as the sequence (Q16531 whole entry partner) above
T2 sequence (P48729 whole entry): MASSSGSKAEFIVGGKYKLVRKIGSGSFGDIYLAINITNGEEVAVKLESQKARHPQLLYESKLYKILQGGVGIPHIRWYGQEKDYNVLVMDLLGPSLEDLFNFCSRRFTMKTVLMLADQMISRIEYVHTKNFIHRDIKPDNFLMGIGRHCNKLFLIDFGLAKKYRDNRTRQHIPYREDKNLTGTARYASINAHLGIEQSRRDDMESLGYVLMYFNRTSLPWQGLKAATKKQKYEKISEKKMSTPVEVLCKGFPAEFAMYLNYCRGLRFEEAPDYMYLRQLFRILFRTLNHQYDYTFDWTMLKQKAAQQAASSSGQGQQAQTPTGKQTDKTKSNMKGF
T2 sequence (Q96SW2 whole entry): as the sequence (Q96SW2 whole entry) above
T2 sequence (Q16531 whole entry partner): as the sequence (Q16531 whole entry partner) above
T6 sequence (P30291 whole entry): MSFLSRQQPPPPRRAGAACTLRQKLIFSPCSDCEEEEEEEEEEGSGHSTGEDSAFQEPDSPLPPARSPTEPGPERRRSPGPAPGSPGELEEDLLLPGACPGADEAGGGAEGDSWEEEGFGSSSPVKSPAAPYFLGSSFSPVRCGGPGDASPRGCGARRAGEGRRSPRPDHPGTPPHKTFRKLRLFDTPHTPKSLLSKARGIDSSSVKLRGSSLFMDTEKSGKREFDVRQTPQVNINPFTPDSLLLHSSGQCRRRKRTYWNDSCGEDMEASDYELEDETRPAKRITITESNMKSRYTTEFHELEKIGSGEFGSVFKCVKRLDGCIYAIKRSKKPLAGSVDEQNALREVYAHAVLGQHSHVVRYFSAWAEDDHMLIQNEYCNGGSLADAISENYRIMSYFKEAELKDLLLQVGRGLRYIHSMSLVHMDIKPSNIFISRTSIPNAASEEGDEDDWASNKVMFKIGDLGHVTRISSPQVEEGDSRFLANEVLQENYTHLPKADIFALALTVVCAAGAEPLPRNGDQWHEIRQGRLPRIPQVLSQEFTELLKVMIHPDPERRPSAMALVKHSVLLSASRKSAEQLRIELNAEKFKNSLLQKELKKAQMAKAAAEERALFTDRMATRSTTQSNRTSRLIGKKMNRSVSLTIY
T6 sequence (Q96SW2 whole entry): as the sequence (Q96SW2 whole entry) above
T6 sequence (Q16531 whole entry partner): as the sequence (Q16531 whole entry partner) above

In general, inhibition refers to the percentage by which the read-out fell short of the control. For `CC1(C)CCC(CN2CCN(Cc3cccc4c3CN(C3CCC(=O)NC3=O)C4=S)CC2)=C(c2ccc(Cl)cc2)C1` (stereo not shown) [GT-08303, 3-(4-((4-((4'-chloro-5,5-dimethyl-3,4,5,6-tetrahydro-[1,1'-biphenyl]-2-yl)methyl)piperazin-1-yl)methyl)-1-thioxoisoindolin-2-yl)piperidine-2,6-dione], in assay [1], the inhibition at 0.5 µM was 30 to 40% and the inhibition at 2 µM lay in the range of 60 to 80%. Besides, in [2], the inhibition at 0.01 µM fell in the range of 40 to 60% and the inhibition at 0.5 µM was 40 to 60%.
For the compound `O=C1CCC(N2Cc3cc(CN4CCC(c5ccnc(F)c5F)CC4)ccc3C2=S)C(=O)N1` (stereo not shown) [GT-08473, 3-(5-((4-(2,3-difluoropyridin-4-yl)piperidin-1-yl)methyl)-1-thioxoisoindolin-2-yl)piperidine-2,6-dione], in [1], the inhibition at 0.5 µM lay in the range of 60 to 80% and the inhibition at 2 µM was in the range of 80 to 100%. In [2], the inhibition at 0.01 µM was 40 to 60% and the inhibition at 0.5 µM was in the range of 40 to 60%.
For `O=C1CCC(N2Cc3c(CN4CCC(c5ccccc5)CC4)cccc3C2=S)C(=O)N1` (stereo not shown) [GT-08506, 3-(4-((4-phenylpiperidin-1-yl)methyl)-1-thioxoisoindolin-2-yl)piperidine-2,6-dione], on CK1α (setting [4]), the “CK1α substrate protein remaining %” value is on record as “B (80%< substrate protein remaining %≤ 100%)”. Moreover, the “IKZF 1 substrate protein remaining %” value on IKZF1 (setting [4]) is given as “B (80%< substrate protein remaining %≤ 100%)”. Moreover, at IKZF2 (setting [4]), the “IKZF2 substrate protein remaining %” value is reported as “A (0% ≤ substrate protein remaining % ≤ 80%)”. Besides, on IKZF3 (setting [4]), the “IKZF3 substrate protein remaining %” value is recorded as “A (0% ≤ substrate protein remaining % ≤ 80%)”. For the same compound, at WEE1 (setting [4]), the “Wee1 substrate protein remaining %” value was “A (0% ≤ substrate protein remaining % ≤ 80%)”. The “GSPT1 substrate protein remaining %” value in the assay on GSPT1 (setting [4]) is on record as “A (0% ≤ substrate protein remaining % ≤ 80%)”. Also, in assay [2], the inhibition at 0.01 µM fell in the range of 30 to 40% and the inhibition at 0.5 µM was 40 to 60%.
Turning to `O=C1CCC(N2Cc3cc(CN4CCC(c5ccc(Cl)cc5)CC4)ccc3C2=S)C(=O)N1` (stereo not shown) [GT-08619, 3-(5-((4-(4-chlorophenyl)piperidin-1-yl)methyl)-1-thioxoisoindolin-2-yl)piperidine-2,6-dione], the “CK1α substrate protein remaining %” value at CK1α (setting [4]) is “B (80%< substrate protein remaining %≤ 100%)”. Further, the “IKZF 1 substrate protein remaining %” value at IKZF1 (setting [4]) is reported as “B (80%< substrate protein remaining %≤ 100%)”. The “IKZF2 substrate protein remaining %” value on IKZF2 (setting [4]) is reported as “B (80%< substrate protein remaining %≤ 100%)”. Besides, the “IKZF3 substrate protein remaining %” value on IKZF3 (setting [4]) was “B (80%< substrate protein remaining %≤ 100%)”. For the same compound, the “Wee1 substrate protein remaining %” value on WEE1 (setting [4]) is recorded as “B (80%< substrate protein remaining %≤ 100%)”. Further, the “GSPT1 substrate protein remaining %” value with GSPT1 (setting [4]) is “A (0% ≤ substrate protein remaining % ≤ 80%)”. In assay [1], the inhibition at 0.5 µM lay within 40 to 53% and the inhibition at 2 µM is 80 to 100%. Moreover, in [3], the inhibition at 0.01 µM lay within 20 to 30% and the inhibition at 0.5 µM was in the range of 40 to 50%.
For the compound `O=C1CCC(N2Cc3cc(CN4CCC(c5cccc(C(F)(F)F)c5)CC4)ccc3C2=S)C(=O)N1` (stereo not shown) [GT-08623, 3-(1-thioxo-5-((4-(3-(trifluoromethyl)phenyl)piperidin-1-yl)methyl)isoindolin-2-yl)piperidine-2,6-dione], on CK1α (setting [4]), the “CK1α substrate protein remaining %” value is reported as “B (80%< substrate protein remaining %≤ 100%)”. The “IKZF 1 substrate protein remaining %” value at IKZF1 (setting [4]) is on record as “B (80%< substrate protein remaining %≤ 100%)”. Further, on IKZF2 (setting [4]), the “IKZF2 substrate protein remaining %” value is given as “A (0% ≤ substrate protein remaining % ≤ 80%)”. For the same compound, on IKZF3 (setting [4]), the “IKZF3 substrate protein remaining %” value is recorded as “B (80%< substrate protein remaining %≤ 100%)”. In addition, at WEE1 (setting [4]), the “Wee1 substrate protein remaining %” value is reported as “B (80%< substrate protein remaining %≤ 100%)”. Besides, the “GSPT1 substrate protein remaining %” value in the assay with GSPT1 (setting [4]) is listed as “B (80%< substrate protein remaining %≤ 100%)”. Moreover, in [1], the inhibition at 0.5 µM was in the range of 40 to 53% and the inhibition at 2 µM lay within 80 to 100%. In addition, in [3], the inhibition at 0.01 µM fell in the range of 30 to 40% and the inhibition at 0.5 µM lay within 40 to 50%.
With `O=C1CCC(N2Cc3c(CN4CCN(c5cc(Cl)ccn5)CC4)cccc3C2=S)C(=O)N1` (stereo not shown) [GT-08695, 3-(4-((4-(4-chloropyridin-2-yl)piperazin-1-yl)methyl)-1-thioxoisoindolin-2-yl)piperidine-2,6-dione], the “CK1α substrate protein remaining %” value on CK1α (setting [4]) is reported as “B (80%< substrate protein remaining %≤ 100%)”. Also, the “IKZF 1 substrate protein remaining %” value at IKZF1 (setting [4]) is “B (80%< substrate protein remaining %≤ 100%)”. Also, the “IKZF2 substrate protein remaining %” value at IKZF2 (setting [4]) was “B (80%< substrate protein remaining %≤ 100%)”. Moreover, the “IKZF3 substrate protein remaining %” value at IKZF3 (setting [4]) is “B (80%< substrate protein remaining %≤ 100%)”. The “Wee1 substrate protein remaining %” value on WEE1 (setting [4]) is recorded as “A (0% ≤ substrate protein remaining % ≤ 80%)”. The “GSPT1 substrate protein remaining %” value with GSPT1 (setting [4]) is listed as “B (80%< substrate protein remaining %≤ 100%)”. In addition, in assay [1], the inhibition at 0.5 µM was 60 to 80% and the inhibition at 2 µM was 80 to 100%. In addition, in [3], the inhibition at 0.01 µM is 20 to 30% and the inhibition at 0.5 µM lay within 40 to 50%.
With `Cc1cc2c(C3=CCN(Cc4cccc5c4CN(C4CCC(=O)NC4=O)C5=S)CC3)ncnc2s1` (stereo not shown) [GT-08947, 3-(4-((4-(6-methylthieno[2,3-d]pyrimidin-4-yl)-3,6-dihydropyridin-1(2H)-yl)methyl)-1-thioxoisoindolin-2-yl)piperidine-2,6-dione], the “CK1α substrate protein remaining %” value at CK1α (setting [5]) is listed as “B (80%< substrate protein remaining %≤ 100%)”. Also, the “IKZF 1 substrate protein remaining %” value on IKZF1 (setting [5]) is “B (80%< substrate protein remaining %≤ 100%)”. For the same compound, on IKZF2 (setting [5]), the “IKZF2 substrate protein remaining %” value is “B (80%< substrate protein remaining %≤ 100%)”. Moreover, the “IKZF3 substrate protein remaining %” value at IKZF3 (setting [5]) is on record as “B (80%< substrate protein remaining %≤ 100%)”. In addition, at WEE1 (setting [5]), the “Wee1 substrate protein remaining %” value is “A (0% ≤ substrate protein remaining % ≤ 80%)”. Besides, the “GSPT1 substrate protein remaining %” value with GSPT1 (setting [5]) is “B (80%< substrate protein remaining %≤ 100%)”. For the same compound, in assay [1], the inhibition at 0.5 µM lay in the range of 60 to 80% and the inhibition at 2 µM lay in the range of 80 to 100%. For the same compound, in assay [3], the inhibition at 0.01 µM was in the range of 30 to 40% and the inhibition at 0.5 µM was 40 to 50%.
For `O=C1CCC(N2Cc3c(CN4CC=C(c5ncnc6sc7c(c56)CCCC7)CC4)cccc3C2=S)C(=O)N1` (stereo not shown) [GT-08962, 3-(4-((4-(5,6,7,8-tetrahydrobenzo[4,5]thieno[2,3-d]pyrimidin-4-yl)-3,6-dihydropyridin-1(2H)-yl)methyl)-1-thioxoisoindolin-2-yl)piperidine-2,6-dione], the “CK1α substrate protein remaining %” value on CK1α (setting [5]) was “B (80%< substrate protein remaining %≤ 100%)”. Further, the “IKZF 1 substrate protein remaining %” value at IKZF1 (setting [5]) is “B (80%< substrate protein remaining %≤ 100%)”. On IKZF2 (setting [5]), the “IKZF2 substrate protein remaining %” value is “B (80%< substrate protein remaining %≤ 100%)”. The “IKZF3 substrate protein remaining %” value at IKZF3 (setting [5]) is on record as “B (80%< substrate protein remaining %≤ 100%)”. In addition, the “Wee1 substrate protein remaining %” value on WEE1 (setting [5]) is “A (0% ≤ substrate protein remaining % ≤ 80%)”. The “GSPT1 substrate protein remaining %” value in the assay with GSPT1 (setting [5]) is “A (0% ≤ substrate protein remaining % ≤ 80%)”. Besides, in assay [1], the inhibition at 0.5 µM lay within 40 to 53% and the inhibition at 2 µM was in the range of 80 to 100%. Also, in assay [3], the inhibition at 0.01 µM fell in the range of 30 to 40% and the inhibition at 0.5 µM was 40 to 50%.
On to `O=C1CCC(N2Cc3cc(CN4CCN(c5ncc(Cl)cc5Cl)CC4)ccc3C2=S)C(=O)N1` (stereo not shown) [GT-09226, 3-(5-((4-(3,5-dichloropyridin-2-yl)piperazin-1-yl)methyl)-1-thioxoisoindolin-2-yl)piperidine-2,6-dione], for which, in assay [1], the inhibition at 0.5 µM lay within 60 to 80% and the inhibition at 2 µM is 80 to 100%. In addition, in assay [2], the inhibition at 0.01 µM lay in the range of 30 to 40% and the inhibition at 0.5 µM lay in the range of 40 to 60%.
In the same order, the values of `O=C1CCC(N2Cc3cc(CN4CCN(c5cccnc5)CC4)ccc3C2=S)C(=O)N1` (stereo not shown) [GT-09229, 3-(5-((4-(pyridin-3-yl)piperazin-1-yl)methyl)-1-thioxoisoindolin-2-yl)piperidine-2,6-dione] are 60 to 80%, 80 to 100%, 40 to 60% and 40 to 60%.
In the same order, the values of `O=C1CCC(N2Cc3cc(CN4CCN(c5ccnc(F)c5F)CC4)ccc3C2=S)C(=O)N1` (stereo not shown) [GT-09242, 3-(5-((4-(2,3-difluoropyridin-4-yl)piperazin-1-yl)methyl)-1-thioxoisoindolin-2-yl)piperidine-2,6-dione] are 60 to 80%, 80 to 100%, 60 to 80% and 30 to 40%.
In the same order, the values of `Cc1csc2ncnc(N3CCN(Cc4ccc5c(c4)CN(C4CCC(=O)NC4=O)C5=S)CC3)c12` (stereo not shown) [GT-09281, 3-(5-((4-(5-methylthieno[2,3-d]pyrimidin-4-yl)piperazin-1-yl)methyl)-1-thioxoisoindolin-2-yl)piperidine-2,6-dione] are 80 to 100%, 80 to 100%, 25 to 30% and 40 to 60%.
